Data set [1] in a line: UV-visible absorption and fluorescence spectra, fluorescence quantum yields in solution. It counts as physicochemical. The protocol:
^1H NMR and ^13C NMR spectra were taken on a 400 MHz Varian Unity Inova spectrophotometer instrument. ^1H and ^13C NMR spectra were recorded in CDCl3, chemical shifts (δ) are given in ppm relative to solvent peaks (1H: δ 7.26; 13C: δ 77.3) as internal standard. UV spectra were taken on a Hewlett Packard 8452A Diode Array UV-visible spectrophotometer. Fluorescence spectra were recorded on a Spex Fluorolog 1681 0.22 m steady-state fluorometer. Fluorescence quantum yields of BODIPY dyes and polymers were measured in methylene chloride and DMF, and calculated by using fluorescein excited at 490 nm in 0.1 N NaOH as the reference absolute quantum efficiency (φn=85%). Molecular weights of the polymers were determined by gel permeation chromatography (“GPC”) by using a Waters Associates Model 6000A liquid chromatograph. Three American Polymer Standards Corp. Ultrastyragel columns in series with porosity indices of 10^3, 10^4, and 10^5 Å were used and housed in an oven thermostated at 30° C. Mobile phase was HPLC grade THF which was filtered and degassed by vacuum filtration through a 0.5 μm fluoropore filter prior to use. The polymers were detected by a Waters Model 440 ultraviolet absorbance detector at a wavelength of 254 nm and a Waters Model 2410 refractive index detector. Molecular weights were measured relative to polystyrene standards. An Enraf Nonius CAD-4 X-Ray diffractometer was used in the crystal structure determination. The windows program WinGX was used as the interface for the solution and refinement of the model. The data were first reduced and corrected for absorption using the psi-scans, and then solved using the program SIR2004. The model was refined using SHELXL97.
(§1) ^1H NMR and ^13C NMR spectra were taken on a 400 MHz Varian Unity Inova spectrophotometer instrument. ^1H and ^13C NMR spectra were recorded in CDCl3, and chemical shifts (5) are given in ppm relative to solvent peaks (at 7.24 ppm for ^1H spectra and at 77.3 for ^13C spectra) as internal standard. UV spectra were taken on a Hewlett-Packard 8452A Diode Array UV-visible spectrophotometer. Fluorescence spectra were recorded on a Spex Fluorolog 1681 0.22 m steady-state fluorometer. Fluorescence quantum yields of BODIPY dyes and polymers were measured in methylene chloride and calculated by using fluorescein excited at 490 nm in 0.1 N NaOH as the reference (its quantum efficiency of 85%). Fluorescence lifetimes were measured on a GL-3300 Nitrogen Laser laserstrobe PTI instrument and analyzed using FeliX32 software.
^1H NMR and ^13C NMR spectra were taken on a 400 MHz Varian Unity Inova spectrophotometer instrument. ^1H and ^13C NMR spectra were recorded in CDCl3, chemical shifts (δ) are given in ppm relative to solvent peaks (^1H: δ 7.26; ^13C: δ 77.3) as internal standard. UV spectra were taken on a Hewlett Packard 8452A Diode Array UV-visible spectrophotometer. Fluorescence spectra were recorded on a Spex Fluorolog 1681 0.22 m steady-state fluorometer. Fluorescence quantum yields of BODIPY dyes and polymers were measured in methylene chloride and DMF, and calculated by using fluorescein excited at 490 nm in 0.1 N NaOH as the reference quantum efficiency (φn=85%).^30,31 Molecular weights of the polymers were determined by gel permeation chromatography (GPC) by using a Waters Associates Model 6000A liquid chromatograph. Three American Polymer Standards Corp. Ultrastyragel columns in series with porosity indices of 10^3, 10^4, and 10^5 Å were used and housed in an oven thermostated at 30° C. Mobile phase was HPLC grade THF which was filtered and degassed by vacuum filtration through a 0.5 μm fluoropore filter prior to use. The polymers were detected by a Waters Model 440 ultraviolet absorbance detector at a wavelength of 254 nm and a Waters Model 2410 refractive index detector. Molecular weights were measured relative to polystyrene standards. […]

Data set [2] can be described thus: Fluorescence lifetime measurement. The class given is physicochemical. The protocol:
as §1
^1H NMR and ^13C NMR spectra were taken on a 400 MHz Varian Unity Inova spectrophotometer instrument. ^1H and ^13C NMR spectra were recorded in CDCl3, and chemical shifts (δ) are given in ppm relative to solvent peaks (^1H, δ 7.26; ^13C, δ 77.3) as internal standard. UV spectra were taken on a Hewlett-Packard 8452A Diode Array UV-visible spectrophotometer. Fluorescence spectra were recorded on a Spex Fluorolog 1681 0.22 m steady-state fluorometer. Fluorescence quantum yields of BODIPY dyes and polymers were measured in methylene chloride and calculated by using fluorescein exCIted at 490 nm in 0.1 N NaOH as the reference (quantum effiCIency, cPn=85%). Fluorescence lifetimes were measured on a 010-3300 Nitrogen Laser laserstrobe PTI instrument and analyzed using FeliX32 software. Molecular weights of the polymers were determined by gel permeation chromatography (OPC) by using a Waters AssoCIates model 6000A liquid chromatograph. Three American Polymer Standards Corp. ultrastyragel columns in series with porosity indices of 103, 104, and 105 A were used and housed in an oven thermostatted at 30° C. The mobile phase was HPLC grade THF which was filtered and degassed by vacuum filtration through a 0.5, urn fluoropore filter prior to use. The polymers were detected by a Waters Model 440 ultraviolet absorbance detector at a wavelength of 254 nm and a Waters Model 2410 refractive index detector. Molecular weights were determined relative to polystyrene standards.

The mark [3] stands for this setting: methylene chloride solution (Table 9, Example 13).
The mark [4] stands for this setting: methylene chloride solution (Table 10, Example 14).
[5] abbreviates: methylene chloride solution, fluorescein standard (Table 10, Example 14).
The mark [6] stands for this setting: methylene chloride solution, fluorescein standard (Table 9, Example 13).
The mark [7] stands for this setting: CH2Cl2 solution (Table 2, Example 2).
[8] abbreviates: CH2Cl2 solution, fluorescein reference (Example 2).
[9] abbreviates: DMF solution (Table 3, Example 2).
Where [10] appears, read: DMF solution, fluorescein reference (Example 2).

For `CCCCCCCCCCCCOc1ccc(C2=C3C(C)=CC(C)=[N+]3[B-](F)(F)n3c(C)cc(C)c32)cc1` [Compound 3a], the Absorption maxima in data set [1] (setting [3]) and in data set [1] (setting [4]) was 501 nm throughout. Also, the Emission maxima is recorded as 509 nm in data set [1] (setting [3]) and 510 nm in data set [1] (setting [4]). The Stokes shift in data set [1] (setting [3]) came out at 8 nm. Also, the Quantum yield in data set [1] (setting [5]) is 76%. For the same compound, the Fluorescence lifetime in data set [2] (setting [3]) was 3.9 ns; in data set [2] (setting [4]), 3.8 ns.
Regarding `CCCCCCCCCCCCOc1ccc(C2=C3C(C)=CC(C)=[N+]3[B-](F)(F)n3c(C)cc(C)c32)cc1OCCCCCCCCCCCC` [Compound 3b], in data set [1] (setting [3]), the Absorption maxima is reported as 502 nm, the Emission maxima turned out to be 510 nm and the Stokes shift amounted to 8 nm. For the same compound, in data set [1] (setting [4]), the Absorption maxima is on record as 502 nm and the Emission maxima worked out at 511 nm. This compound displayed a Quantum yield in data set [1] (setting [5]) of 81%. This compound displayed a Fluorescence lifetime in data set [2] (setting [3]) of 4.1 ns. Further, the Fluorescence lifetime in data set [2] (setting [4]) amounted to 4.1 ns.
As to `CCCCCCCCCCCCOc1cc(C2=C3C(C)=CC(C)=[N+]3[B-](F)(F)n3c(C)cc(C)c32)cc(OCCCCCCCCCCCC)c1OCCCCCCCCCCCC` [Compound 3c], in data set [1] (setting [3]), the Absorption maxima is listed as 503 nm, the Emission maxima was found to be 511 nm and the Stokes shift is recorded as 9 nm. In data set [2] (setting [3]), this compound yielded a Fluorescence lifetime of 3.2 ns.
Turning to `CCCCCCCCCCCCOc1ccc(C2=C3C(C)=C(I)C(C)=[N+]3[B-](F)(F)n3c(C)c(I)c(C)c32)cc1` [Compound 4a], the Absorption maxima in data set [1] (setting [3]) and in data set [1] (setting [4]) was 533 nm in each case. The Emission maxima in data set [1] (setting [3]) and in data set [1] (setting [4]) was 548 nm throughout. For the same compound, the Stokes shift in data set [1] (setting [3]) came to 15 nm. The Quantum yield was 2.3% in data set [1] (setting [6]) and 5.8% in data set [1] (setting [5]). Moreover, the Fluorescence lifetime in data set [2] (setting [3]) is listed as 0.21 ns; in data set [2] (setting [4]), 0.13 ns.
For `CCCCCCCCCCCCOc1ccc(C2=C3C(C)=C(I)C(C)=[N+]3[B-](F)(F)n3c(C)c(I)c(C)c32)cc1OCCCCCCCCCCCC` [Compound 4b], the Absorption maxima in data set [1] (setting [3]) and in data set [1] (setting [4]) was 534 nm throughout. The Emission maxima in data set [1] (setting [3]) and in data set [1] (setting [4]) was 549 nm throughout. Further, in data set [1] (setting [3]), the Stokes shift was 15 nm. For the same compound, the Quantum yield in data set [1] (setting [6]) stood at 2.7%; in data set [1] (setting [5]), 5.8%. Besides, the Fluorescence lifetime in data set [2] (setting [3]) is 0.15 ns; in data set [2] (setting [4]), 0.08 ns.
Regarding `CCCCCCCCCCCCOc1cc(C2=C3C(C)=C(I)C(C)=[N+]3[B-](F)(F)n3c(C)c(I)c(C)c32)cc(OCCCCCCCCCCCC)c1OCCCCCCCCCCCC` [Compound 4c], in data set [1] (setting [3]), the Absorption maxima amounted to 535 nm, the Emission maxima was 550 nm and the Stokes shift is given as 15 nm. The compound also yielded a Quantum yield in data set [1] (setting [6]) of 2.3%. Also, in data set [2] (setting [3]), the Fluorescence lifetime is reported as 0.19 ns.
Take `COc1cc(C2=C3C(C)=CC(C)=[N+]3[B-](F)(F)n3c(C)cc(C)c32)cc(OC)c1OC` [Compound 9, 4,4-Difluoro-8-(3,4,5-trimethoxyphenyl)-1,3,5,7-tetramethyl-4-bora-3a,4a-diaza-s-indacene]: the Absorption maxima came to 502 nm in data set [1] (setting [7]) and 501 nm in data set [1] (setting [9]). Also, the Emission maxima in data set [1] (setting [7]) and in data set [1] (setting [9]) was 511 nm each time. Besides, the values for the Quantum yield in data set [1] (setting [8]) and in data set [1] (setting [10]) were 71.5% and 55.3%, respectively.
Take `COc1cc(C2=C3C(C)=C(I)C(C)=[N+]3[B-](F)(F)n3c(C)c(I)c(C)c32)cc(OC)c1OC` [Compound 10, 4,4-Difluoro-8-(3,4,5-trimethoxyphenyl)-2,6-diiodo-1,3,5,7-tetramethyl-4-bora-3a,4a-diaza-s-indacene]: the results for the Absorption maxima in data set [1] (setting [7]) and in data set [1] (setting [9]) were 535 nm and 534 nm, respectively. Further, the Emission maxima in data set [1] (setting [7]) came out at 549 nm; in data set [1] (setting [9]) it was 551 nm. Further, the Quantum yield in data set [1] (setting [8]) amounted to 7.52%; in data set [1] (setting [10]) it was 3.4%.
Consider `COc1ccc(C2=C3C(C)=CC(C)=[N+]3[B-](F)(F)n3c(C)cc(C)c32)cc1` [Compound 14, 4,4-Difluoro-8-(4-methoxyphenyl)-1,3,5,7-tetramethyl-4-bora-3a,4a-diaza-s-indacene], for which the Absorption maxima in data set [1] (setting [7]) and in data set [1] (setting [9]) was 500 nm throughout. Moreover, the Emission maxima in data set [1] (setting [7]) and in data set [1] (setting [9]) was 510 nm in each case. In addition, the Quantum yield in data set [1] (setting [8]) came out at 80.1%; in data set [1] (setting [10]) it was 71.6%.
Regarding `COc1ccc(C2=C3C(C)=C(I)C(C)=[N+]3[B-](F)(F)n3c(C)c(I)c(C)c32)cc1` [Compound 15, 4,4-Difluoro-8-(4-methoxyphenyl)-2,6-diiodo-1,3,5,7-tetramethyl-4-bora-3a, 4a-diaza-s-indacene], the Absorption maxima in data set [1] (setting [7]) and in data set [1] (setting [9]) was 533 nm in each case. Moreover, the values for the Emission maxima in data set [1] (setting [7]) and in data set [1] (setting [9]) were 548 nm and 551 nm, respectively. Besides, the Quantum yield in data set [1] (setting [8]) came out at 5.72%; in data set [1] (setting [10]), 4.9%.
On to `CC1=CC(C)=[N+]2C1=C(c1c(C)cccc1C)c1c(C)cc(C)n1[B-]2(F)F` [Compound 18, 4,4-Difluoro-8-(2,6-dimethylphenyl)-1,3,5,7-tetramethyl-4-bora-3a,4a-diaza-s-indacene], for which the figures for the Absorption maxima in data set [1] (setting [7]) and in data set [1] (setting [9]) were 501 nm and 502 nm, respectively. The Emission maxima in data set [1] (setting [7]) and in data set [1] (setting [9]) was 510 nm in each case. Besides, the Quantum yield in data set [1] (setting [8]) is 86.7%; in data set [1] (setting [10]), 73.8%.
As for `CC1=C(I)C(C)=[N+]2C1=C(c1c(C)cccc1C)c1c(C)c(I)c(C)n1[B-]2(F)F` [Compound 19, 4,4-Difluoro-8-(2,6-dimethylphenyl)-2,6-diiodo-1,3,5,7-tetramethyl-4-bora-3a,4a-diaza-s-indacene], the Absorption maxima in data set [1] (setting [7]) is given as 535 nm; in data set [1] (setting [9]), 536 nm. For the same compound, the results for the Emission maxima in data set [1] (setting [7]) and in data set [1] (setting [9]) were 549 nm and 552 nm, respectively. The Quantum yield is 8.64% in data set [1] (setting [8]) and 4.4% in data set [1] (setting [10]).

For the origin of these results see patent US9623123B2, “Fluorescent conjugated polymers with a bodipy-based backbone and uses thereof” (Michigan Technological University, priority 2008, dated 2017).
